Reference: the supplement of paper PMC10307832

Tests used:
Test in all cases: relative viability (nuclei count vs DMSO), 5 days (fraction); higher = more cells survive
NCI-H2085 = system: NCI-H2085
How it was run: (§1)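 Lung cancer cell lines, seeded in 1536-well plates, were treated the following day by pin tool with a single drug or with five library-drug doses (not always all listed) in √10 steps on top of a fixed anchor-drug dose. Cells were fixed and nuclei stained in one step after 5 days, and nuclei were counted. Relative viability is the nuclei count for treated wells divided by that for vehicle wells, reported as medians of duplicate plates.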

ABC-1 = system: ABC-1
How it was run: as §1

LU99A = system: LU99A
How it was run: as §1

NCI-H838 = system: NCI-H838
How it was run: as §1

LC-2-ad = system: LC-2-ad
How it was run: as §1

EPLC-272H = system: EPLC-272H
How it was run: as §1

NCI-H2023 = system: NCI-H2023
How it was run: as §1

NCI-H1355 = system: NCI-H1355
How it was run: as §1

SW 1573 = system: SW 1573
How it was run: as §1

NCI-H2347 = system: NCI-H2347
How it was run: as §1

NCI-H2126 = system: NCI-H2126
How it was run: as §1

NCI-H650 = system: NCI-H650
How it was run: as §1

COR-L23 = system: COR-L23
How it was run: as §1

HARA = system: HARA
How it was run: as §1

HCC-78 = system: HCC-78
How it was run: as §1

NCI-H1993 = system: NCI-H1993
How it was run: as §1

HCC-15 = system: HCC-15
How it was run: as §1

PC-14 = system: PC-14
How it was run: as §1

NCI-H358 = system: NCI-H358
How it was run: as §1

UMC-11 = system: UMC-11
How it was run: as §1

NCI-H1651 = system: NCI-H1651
How it was run: as §1

NCI-H1915 = system: NCI-H1915
How it was run: as §1

Structure (SMILES): C=C1C(=O)O[C@@H](CCCCCCCC)[C@@H]1C(=O)O [C-75] + CS(=O)(=O)N1CCN(Cc2cc3nc(-c4cccc5[nH]ncc45)nc(N4CCOCC4)c3s2)CC1 [Pictilisib] (partner 1 µM)
- relative viability (NCI-H2085; first compound 0.08 µM): 0.504
- relative viability (NCI-H2085; first compound 0.253 µM): 0.543
- relative viability (NCI-H2085; first compound 0.8 µM): 0.433
- relative viability (NCI-H2085; first compound 2.53 µM): 0.339
- relative viability (NCI-H2085; first compound 8 µM): 0.413
- relative viability (ABC-1; first compound 0.08 µM): 0.733
- relative viability (ABC-1; first compound 0.253 µM): 0.87
- relative viability (ABC-1; first compound 0.8 µM): 0.659
- relative viability (ABC-1; first compound 2.53 µM): 0.646
- relative viability (ABC-1; first compound 8 µM): 0.469
- relative viability (LU99A; first compound 0.08 µM): 0.281
- relative viability (LU99A; first compound 0.253 µM): 0.306
- relative viability (LU99A; first compound 0.8 µM): 0.305
- relative viability (LU99A; first compound 2.53 µM): 0.286
- relative viability (LU99A; first compound 8 µM): 0.307
- relative viability (NCI-H838; first compound 0.08 µM): 0.43
- relative viability (NCI-H838; first compound 0.253 µM): 0.376
- relative viability (NCI-H838; first compound 0.8 µM): 0.444
- relative viability (NCI-H838; first compound 2.53 µM): 0.386
- relative viability (NCI-H838; first compound 8 µM): 0.478
- relative viability (LC-2-ad; first compound 0.08 µM): 0.556
- relative viability (LC-2-ad; first compound 0.253 µM): 0.528
- relative viability (LC-2-ad; first compound 0.8 µM): 0.457
- relative viability (LC-2-ad; first compound 8 µM): 0.442
- relative viability (EPLC-272H; first compound 0.08 µM): 0.336
- relative viability (EPLC-272H; first compound 0.253 µM): 0.308
- relative viability (EPLC-272H; first compound 0.8 µM): 0.298
- relative viability (EPLC-272H; first compound 2.53 µM): 0.265
- relative viability (EPLC-272H; first compound 8 µM): 0.232
- relative viability (NCI-H2023; first compound 0.08 µM): 0.239
- relative viability (NCI-H2023; first compound 0.253 µM): 0.29
- relative viability (NCI-H2023; first compound 0.8 µM): 0.203
- relative viability (NCI-H2023; first compound 2.53 µM): 0.311
- relative viability (NCI-H2023; first compound 8 µM): 0.262
- relative viability (NCI-H1355; first compound 0.08 µM): 0.477
- relative viability (NCI-H1355; first compound 0.253 µM): 0.48
- relative viability (NCI-H1355; first compound 0.8 µM): 0.348
- relative viability (NCI-H1355; first compound 2.53 µM): 0.507
- relative viability (NCI-H1355; first compound 8 µM): 0.465
- relative viability (SW 1573; first compound 0.08 µM): 0.555
- relative viability (SW 1573; first compound 0.253 µM): 0.511
- relative viability (SW 1573; first compound 0.8 µM): 0.482
- relative viability (SW 1573; first compound 2.53 µM): 0.346
- relative viability (SW 1573; first compound 8 µM): 0.365
- relative viability (NCI-H2347; first compound 0.08 µM): 0.554
- relative viability (NCI-H2347; first compound 0.253 µM): 0.877
- relative viability (NCI-H2347; first compound 0.8 µM): 0.31
- relative viability (NCI-H2347; first compound 2.53 µM): 0.592
- relative viability (NCI-H2347; first compound 8 µM): 0.649
- relative viability (NCI-H2126; first compound 0.08 µM): 0.465
- relative viability (NCI-H2126; first compound 0.253 µM): 0.597
- relative viability (NCI-H2126; first compound 0.8 µM): 0.471
- relative viability (NCI-H2126; first compound 2.53 µM): 0.506
- relative viability (NCI-H2126; first compound 8 µM): 0.469
- relative viability (NCI-H650; first compound 0.08 µM): 0.864
- relative viability (NCI-H650; first compound 0.253 µM): 0.825
- relative viability (NCI-H650; first compound 0.8 µM): 0.801
- relative viability (NCI-H650; first compound 2.53 µM): 0.815
- relative viability (NCI-H650; first compound 8 µM): 0.883
- relative viability (COR-L23; first compound 0.08 µM): 0.663
- relative viability (COR-L23; first compound 0.253 µM): 0.865
- relative viability (COR-L23; first compound 0.8 µM): 0.78
- relative viability (COR-L23; first compound 2.53 µM): 0.609
- relative viability (COR-L23; first compound 8 µM): 0.693
- relative viability (HARA; first compound 0.08 µM): 0.413
- relative viability (HARA; first compound 0.253 µM): 0.432
- relative viability (HARA; first compound 0.8 µM): 0.375
- relative viability (HARA; first compound 8 µM): 0.585
- relative viability (HCC-78; first compound 0.08 µM): 0.216
- relative viability (HCC-78; first compound 0.253 µM): 0.217
- relative viability (HCC-78; first compound 0.8 µM): 0.206
- relative viability (HCC-78; first compound 2.53 µM): 0.198
- relative viability (HCC-78; first compound 8 µM): 0.22
- relative viability (NCI-H1993; first compound 0.08 µM): 0.727
- relative viability (NCI-H1993; first compound 0.253 µM): 0.938
- relative viability (NCI-H1993; first compound 0.8 µM): 0.842
- relative viability (NCI-H1993; first compound 2.53 µM): 0.801
- relative viability (NCI-H1993; first compound 8 µM): 0.914
- relative viability (HCC-15; first compound 0.08 µM): 0.739
- relative viability (HCC-15; first compound 0.253 µM): 0.761
- relative viability (HCC-15; first compound 0.8 µM): 0.654
- relative viability (HCC-15; first compound 2.53 µM): 0.666
- relative viability (HCC-15; first compound 8 µM): 0.725
- relative viability (PC-14; first compound 0.08 µM): 0.748
- relative viability (PC-14; first compound 0.253 µM): 0.997
- relative viability (PC-14; first compound 0.8 µM): 0.668
- relative viability (PC-14; first compound 2.53 µM): 0.753
- relative viability (PC-14; first compound 8 µM): 0.695
- relative viability (NCI-H358; first compound 0.08 µM): 0.365
- relative viability (NCI-H358; first compound 0.253 µM): 0.348
- relative viability (NCI-H358; first compound 0.8 µM): 0.312
- relative viability (NCI-H358; first compound 2.53 µM): 0.326
- relative viability (NCI-H358; first compound 8 µM): 0.361
- relative viability (UMC-11; first compound 0.08 µM): 0.74
- relative viability (UMC-11; first compound 0.253 µM): 0.899
- relative viability (UMC-11; first compound 0.8 µM): 0.704
- relative viability (UMC-11; first compound 2.53 µM): 0.702
- relative viability (UMC-11; first compound 8 µM): 0.75
- relative viability (NCI-H1651; first compound 0.08 µM): 0.466
- relative viability (NCI-H1651; first compound 0.253 µM): 0.633
- relative viability (NCI-H1651; first compound 0.8 µM): 0.499
- relative viability (NCI-H1651; first compound 2.53 µM): 1.04
- relative viability (NCI-H1651; first compound 8 µM): 0.501
- relative viability (NCI-H1915; first compound 0.08 µM): 0.953
- relative viability (NCI-H1915; first compound 0.253 µM): 1.08
- relative viability (NCI-H1915; first compound 0.8 µM): 0.857
- relative viability (NCI-H1915; first compound 2.53 µM): 0.828
- relative viability (NCI-H1915; first compound 8 µM): 0.763
